Experimental data reported in patent publication US9375436B2, “Androgen treatment in females” (priority 2004, dated 2016).
Values joined by “and” are separate entries in the source; they are usually repeats but may differ in a detail not shown here. Equal entries are not always repeated.

Tests used:
Type in all cases: in vivo, human
[1] = system: patients with evidence of decreased ovarian reserve; assay: IVF cycles before and after DHEA treatment (Example 2)
Procedure: Cumulative embryo score is determined by scoring day 3 embryos and multiplying the number of cells in the embryo by the embryo grade. Embryo grade is a judgment of the embryologist on embryo quality from 1 to 5. Most good embryos are scored 4, with 5 reserved for exceptional embryos. The grade is based on the uniformity of the cells, the color and consistency of the cytoplasm, and the amount of fragmentation. Normal embryos are less than 5% fragmented. A person with three eight cell embryos each with a grade of four would have a cumulative embryos score of 96, the product of 3×8×4.
In another study, thirty (30) patients with evidence of decreased ovarian reserve were given supplemental DHEA 25 mg three times a day, for a total of 75 mg per day, for an average of about 4 months before beginning ovulation induction for IVF. Twelve patients contributed data from cycles both pre-DHEA and post-DHEA, eleven patients contributed data from cycles only pre-DHEA, and seven patients contributed data from cycles only post-DHEA. Patients' response to ovulation induction before DHEA treatment was compared to patients' response to ovulation induction after DHEA treatment with regard to peak estradiol, oocyte production, and embryos transferred and embryo quality.

[2] = system: embryos of women undergoing IVF; assay: Pre-implantation genetic diagnosis, euploidy rate by length of DHEA usage (Example 3)
Procedure: In another study (data not shown), patients were analyzed after four weeks of DHEA treatment. Seven patients had embryos tested by pre-implantation genetic diagnosis (PGD). In three women who had PGD after less than four weeks of DHEA usage and a mean age 41.5±5.1 at the time of starting IVF cycles, the euploidy, or normal chromosome number, rate was 2/30 embryos (6.6%). […] There is a mean age difference between patients who underwent IVF after less than four weeks of DHEA usage (mean age 41.5±5.1) and patients who underwent IVF after at least four weeks of DHEA usage (mean age 43.7±1.3).

[3] = system: women with diminished ovarian reserve; assay: AMH as reflection of ovarian reserve after DHEA supplementation (Examples 9 and 12)
Procedure: The study is a cross-sectional analysis of 120 consecutive women with DOR in whom AMH levels were evaluated as a reflection of OR. They presented during 2007/8 to our center for initial infertility consultation. First AMH levels obtained were used for INITIAL analysis. Post DHEA initiation, exposure to the supplement ranged from 34 to 119 days (mean 73±27 days). Women with two or more consecutive AMH levels comprised patients in the longitudinal study evaluation of OR after initiation of DHEA supplementation. […]
FSH and estradiol were evaluated by standard enzyme-linked immunoabsorbent assay (ELISA; AIA-600II, Tohso, Tokyo, Japan). […] Theoretical sensitivity, or minimum detection limit, as calculated by interpolation of the mean plus two standard deviations (SD) of eight replicates of the 0 ng/ml MIS/AMH Standard, is 0.006 ng/ml. […]
Data are shown as means±standard deviation (SD) or as raw numbers and percentages. […] Demographic and biochemical data were analyzed with paired or unpaired Student's t-test. […]
The study is a cross-sectional and longitudinal analysis of 120 consecutive women with diminished ovarian reserve, in whom AMH concentrations were evaluated as a reflection of ovarian reserve. […]
FSH and oestradiol were evaluated by standard enzyme-linked immunoabsorbent assay (ELISA; AIA-600II, Tohso, Tokyo, Japan). […]

[4] = Post DHEA, 19 cycles, 16.1 ± 2.4 weeks of DHEA 75 mg per day

SMILES: C[C@]12CC[C@H](O)CC1=CC[C@@H]1[C@@H]2CC[C@]2(C)C(=O)CC[C@@H]12 [DHEA, Dehydroepiandrosterone]
- patients with continuing pregnancies ([1]; 5 of 45 patients): 11%
- patients using DHEA who have conceived ([1]; 7 of 45 patients): 16%
- mean increase in the number of fertilized oocytes (paired comparisons) ([1]; 12 patients): 1.42±0.63
- Average Day 3 embryo cell count ([1]; Post DHEA, 19 cycles): 4.5 ± 0.5
- Average Day 3 embryo grade ([1]; Post DHEA, 19 cycles): 2.8 ± 0.3
- Fertilized eggs ([1]; Post DHEA, 19 cycles): 4.6 ± 0.8
- Number of Day 3 embryos ([1]; Post DHEA, 19 cycles): 3.2 ± 0.6
- Oocytes ([1]; Post DHEA, 19 cycles): 5.8 ± 1.0
- Peak Estradiol ([1]; Post DHEA, 19 cycles): 1192 ± 904
- Transferred embryos ([1]; Post DHEA, 19 cycles): 2.6 ± 0.4
- Cancellation [1, 4]: 5%
- Cancellation (cycles cancelled / cycles) [1, 4]: 1 of 19 and 1/19
- Positive hCG (per transfer cycle) ([1]; Post DHEA, cycles after an average of 4 months of DHEA treatment): 4/18
- increase in cumulative embryo score ([1]; after versus prior to DHEA use): about 64
- improved overall embryo score, model adjusted for oocyte number ([1]; post versus pre DHEA): 32.8
- increased fertilization, model adjusted for oocyte number ([1]; post versus pre DHEA): 1.93 fertilized oocytes
- increased numbers of day-three embryos, model adjusted for oocyte number ([1]; post versus pre DHEA): 1.36 embryos
- euploidy rate ([2]; PGD after less than four weeks of DHEA usage, three women, 2/30 embryos): 6.6%
- euploidy rate ([2]; PGD after more than four weeks of DHEA usage, six patients, 8/27 embryos): 29.6%
- clinical pregnancy rate ([3]; 55 women who reached IVF, 13 conceived): 23.64%
- AMH at highest measured peak ([3]; longitudinal evaluation, n=55, baseline before DHEA 0.22±0.22, DHEA 25 mg TID): 0.35 ± 0.03 ng/mL
